Test results reported in publication PMC3263330 (2011).
Where a chain is given by its changes, count along the chain named.

How the values were obtained:
[1] = target: T1, aryl hydrocarbon receptor (mAhR) (Mus musculus, UniProt P30561); assay: competitive [3H]TCDD hydroxyapatite radioligand binding assay; details: read-out: Experimental IC50 (M), in vitro synthesized mAhR
T1 sequence (P30561 10-848): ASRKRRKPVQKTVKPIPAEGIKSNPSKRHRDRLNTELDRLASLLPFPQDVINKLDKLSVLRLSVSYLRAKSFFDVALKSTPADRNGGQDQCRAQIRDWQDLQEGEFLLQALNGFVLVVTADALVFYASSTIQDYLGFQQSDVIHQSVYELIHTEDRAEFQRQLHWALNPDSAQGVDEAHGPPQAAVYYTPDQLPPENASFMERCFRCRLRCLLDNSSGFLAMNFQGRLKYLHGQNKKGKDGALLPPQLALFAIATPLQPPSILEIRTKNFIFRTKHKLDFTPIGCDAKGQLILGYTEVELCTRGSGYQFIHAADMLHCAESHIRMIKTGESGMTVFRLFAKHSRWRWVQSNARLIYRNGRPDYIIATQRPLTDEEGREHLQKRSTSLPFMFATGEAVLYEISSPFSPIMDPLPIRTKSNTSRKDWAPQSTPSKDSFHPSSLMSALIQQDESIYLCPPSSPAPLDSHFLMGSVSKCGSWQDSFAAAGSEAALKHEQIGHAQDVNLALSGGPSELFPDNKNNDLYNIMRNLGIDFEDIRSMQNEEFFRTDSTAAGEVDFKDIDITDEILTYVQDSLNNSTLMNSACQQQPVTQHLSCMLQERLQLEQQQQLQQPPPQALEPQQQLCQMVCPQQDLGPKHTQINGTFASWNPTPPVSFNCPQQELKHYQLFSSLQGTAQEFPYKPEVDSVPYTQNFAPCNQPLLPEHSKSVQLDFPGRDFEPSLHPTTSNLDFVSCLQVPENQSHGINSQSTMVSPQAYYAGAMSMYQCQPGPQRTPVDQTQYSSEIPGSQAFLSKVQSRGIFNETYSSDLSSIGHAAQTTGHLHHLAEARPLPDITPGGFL

[2] = target: T2, aryl hydrocarbon receptor (mAhR) (Mus musculus, UniProt P30561, S359A); assay: [3H]TCDD specific binding, hydroxyapatite assay
T2 sequence (P30561 10-848 S359A): T1 sequence (P30561 10-848) with S350A

[3] = target: T1, aryl hydrocarbon receptor (mAhR); assay: [3H]TCDD; type: binding

## O=[N+]([O-])c1cc(C(F)(F)F)ccc1NCc1ccco1 [THS-020]
[1]
  IC50: 4.2e-06 M

## Clc1cc2c(cc1Cl)Oc1cc(Cl)c(Cl)cc1O2 [TCDD, 2,3,7,8-tetrachlorodibenzo-p-dioxin]
[2]
  % reduction of binding vs wild type: ~ 40 % reduction of binding vs wild type
[3]
  [3H]TCDD (2 nM) specific binding, hydroxyapatite assay: THS compounds displace [^3H]TCDD from the in vitro synthesized AhR in concentration-dependent manner.
